What was measured:
Type in all cases: physicochemical
[1] = Water solubility of the two crystal forms; conditions: for solubility: water, thermodynamic from solid
[2] = Stability studies of the two crystal forms (crystal form by XRPD/TGA)
[3] = Dynamic vapor sorption (hygroscopicity) of the two crystal forms; conditions: for DVS weight gain: 0–90% RH
Source text: Dynamic Vapor Sorption (Allentown, Pa.) was used to measure the hygroscopicity of the anhydrate and monohydrate of the invention (see FIGS. 6 and 7). The step conditions were three hours each at 0%, 30%, 52.5%, 75% and 90% RH, two full cycles.

[4] = Chemical stability of the crystal forms on storage (HPLC); conditions: non-micronized, 40° C./75% RH (monohydrate also 40° C. without humidity control), three months
Experimental: (§1) Non-micronized samples of monohydrate and anhydrate were stored at 40° C./75% RH for three months. The monohydrate was also stored at 40° C. without humidity control. During the three months, the samples were checked after two weeks, one month, two months, and three months.

[5] = Stability studies of the two crystal forms (crystal form by XRPD/TGA); conditions: for Long term stability of crystal form (XRPD and TGA): non-micronized, three months
Experimental: Samples of monohydrate were stored at room temperature, 56° C., and 70° C. for one week. At room temperature, humidity was maintained at 0% RH. Humidity was not controlled for the higher temperatures.
The samples were analyzed by XRPD and TGA.
as §1

C=Cc1cc(O)cc2nc(-c3ccc(O)c(F)c3)oc12 [Anhydrate, 2-(3-fluoro-4-hydroxyphenyl)-7-vinyl-1,3-benzoxazol-5-ol]
solubility ([1]; pH 7.29, water): 10 µg/mL | solubility ([1]; pH 7.7, water, pH 7.70): 12.8 µg/mL | Long term stability of crystal form (XRPD) ([2]; micronized, 25° C./60% RH, three months): did not transform to the monohydrate | Long term stability of crystal form (XRPD) ([2]; micronized, 40° C./75% RH, after one month): partially transform to the monohydrate | Long term stability of crystal form (XRPD) ([2]; non-micronized, 40° C./75% RH, separate study): did not show any obvious transformation | Hygroscopicity (from DVS data) [3]: largely non-hygroscopic | DVS weight gain [3]: 0.2% gain (0–90% | Long term chemical stability (HPLC) [4]: chemically stable | Long term stability of crystal form (XRPD and TGA) ([5]; 40° C./75% RH): did not transform

C=Cc1cc(O)cc2nc(-c3ccc(O)c(F)c3)oc12 [Monohydrate, 2-(3-fluoro-4-hydroxyphenyl)-7-vinyl-1,3-benzoxazol-5-ol]
Water solubility compared between the two forms [1]: significantly lower solubility than the anhydrate | solubility ([1]; pH 7.11, water): 2.34 µg/mL | solubility ([1]; pH 7.51, water): 2.21 µg/mL | Short term stability of crystal form (XRPD) ([2]; 70° C. for one hour): stable | Short term stability of crystal form (XRPD) ([2]; 90° C. after one half hour): partially dehydrated | Short term stability of crystal form (XRPD) ([2]; 90° C. after one hour): completely dehydrated | Hygroscopicity (from DVS data) [3]: largely non-hygroscopic | DVS weight gain [3]: 0.1% gain (0–90% RH) | Long term chemical stability (HPLC) [4]: chemically stable | Medium term stability of crystal form (XRPD and TGA) ([5]; 56° C., humidity not controlled, one week): no obvious dehydration | Medium term stability of crystal form (XRPD and TGA) ([5]; 70° C., humidity not controlled, after 1 day): no obvious hydration | Medium term stability of crystal form (XRPD and TGA) ([5]; 70° C., humidity not controlled, after 4 days): partially dehydrated | Medium term stability of crystal form (XRPD and TGA) ([5]; 70° C., humidity not controlled, after 7 days): mostly dehydrated | Long term stability of crystal form (XRPD and TGA) ([5]; 40° C. without humidity control): did not transform | Long term stability of crystal form (XRPD and TGA) ([5]; 40° C./75% RH): did not transform | Medium term stability of crystal form (XRPD and TGA) ([5]; room temperature, 0% RH, one week): no obvious dehydration

Reference: patent US20070207201A1, “Liquid and Semi-Solid Pharmaceutical Formulations and Processes” (Wyeth, priority 2006, published 2007)
